According to patent US20110224250A1, “ISOQUINOLINE DERIVATIVE, AND PDE INHIBITOR COMPRISING SAME AS ACTIVE INGREDIENT” (priority 2008, published 2011):

Columns and labels:
PDE4Bcat = target: T1, PDE4Bcat (Homo sapiens, UniProt Q07343); test: Phosphodiesterase-inhibitory activity, PDE4; format: biochemical; details: human-derived recombinant PDE protein, [3H]-cAMP, 30° C. for 20 minutes; read-out: IC50 (μmol/L) PDE4
T1 construct: made in house; host or cells: Sf9 insect cells (baculovirus, Bac-to-Bac / Gateway)

PDE3A catalytic zone = target: T2, PDE3A catalytic zone (Homo sapiens, UniProt Q14432); test: Phosphodiesterase-inhibitory activity, PDE3; format: biochemical; details: human-derived recombinant PDE protein, [3H]-cAMP, 30° C. for 20 minutes; read-out: IC50 (μmol/L) PDE3
T2 construct: Regarding the cDNAs of the PDE3A catalytic zone; made in house; host or cells: Sf9 insect cells (baculovirus, Bac-to-Bac / Gateway)
T2 sequence (Q14432 674-1093 limits assumed): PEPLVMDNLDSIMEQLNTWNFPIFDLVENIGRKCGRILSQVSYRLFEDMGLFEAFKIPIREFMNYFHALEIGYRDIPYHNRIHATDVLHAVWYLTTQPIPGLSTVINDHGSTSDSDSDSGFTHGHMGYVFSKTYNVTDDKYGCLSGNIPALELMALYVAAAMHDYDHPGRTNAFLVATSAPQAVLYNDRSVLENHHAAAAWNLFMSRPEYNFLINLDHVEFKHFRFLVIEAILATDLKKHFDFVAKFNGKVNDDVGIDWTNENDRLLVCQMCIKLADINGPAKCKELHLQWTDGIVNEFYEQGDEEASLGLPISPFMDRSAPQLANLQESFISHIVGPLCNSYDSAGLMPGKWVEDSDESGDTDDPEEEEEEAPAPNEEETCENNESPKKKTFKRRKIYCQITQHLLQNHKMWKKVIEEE

T1 sequence (Q07343 330-659 limits assumed): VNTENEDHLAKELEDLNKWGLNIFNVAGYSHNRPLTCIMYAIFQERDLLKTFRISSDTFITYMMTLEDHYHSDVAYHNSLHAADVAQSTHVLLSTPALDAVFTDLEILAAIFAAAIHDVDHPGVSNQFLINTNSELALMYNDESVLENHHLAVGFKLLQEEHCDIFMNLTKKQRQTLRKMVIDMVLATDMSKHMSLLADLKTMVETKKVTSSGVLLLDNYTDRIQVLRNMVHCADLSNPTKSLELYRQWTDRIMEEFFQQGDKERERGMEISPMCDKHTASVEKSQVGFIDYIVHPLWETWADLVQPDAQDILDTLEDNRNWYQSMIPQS

Row | Compound | IC50 (PDE4Bcat) | IC50 (PDE3A catalytic zone)
1 | COc1ccc(-c2ccc3cnccc3c2)c2c(Cl)c(C(F)(F)F)nn12 [Example 51, 6-(3-Chloro-7-methoxy-2-trifluoromethylpyrazolo[1,5-a]pyridin-4-yl)isoquinoline] | < 0.01 µmol/L | ≥ 100 µmol/L
2 | COc1ccc(-c2ccc3cnccc3c2)c2cc(C3CC3)nn12 [Example 53, 6-(2-Cyclopropyl-7-methoxypyrazolo[1,5-a]pyridin-4-yl)isoquinoline] | < 0.01 µmol/L | 1 to 100 µmol/L
3 | CCc1cc2c(-c3ccc4cnccc4c3)ccc(OC)n2n1 [Example 54, 6-(2-Ethyl-7-methoxypyrazolo[1,5-a]pyridin-4-yl)isoquinoline] | < 0.01 µmol/L | 1 to 100 µmol/L
4 | CNc1ccc(-c2ccc3cnccc3c2)c2cc(C(F)(F)F)nn12 [Example 55, 4-(Isoquinolin-6-yl)-N-methyl-2-trifluoromethylpyrazolo[1,5-a]pyridine-7-amine] | < 0.01 µmol/L | ≥ 100 µmol/L
5 | COc1ccc(-c2ccc3cnccc3c2)n2c(Cl)c(C(F)(F)F)nc12 [Example 57, 6-(3-Chloro-8-methoxy-2-trifluoromethylimidazo[1,2-a]pyridin-5-yl)isoquinoline] | < 0.01 µmol/L | ≥ 100 µmol/L

Now from value to compound:

Row | IC50 (PDE4Bcat) | IC50 (PDE3A catalytic zone) | Compound
6 | < 0.01 µmol/L | ≥ 100 µmol/L | COc1ccc(-c2ccc3cnccc3c2)c2cc(C(F)(F)F)nn12 [Example 47, 6-(7-Methoxy-2-trifluoromethylpyrazolo[1,5-a]pyridin-4-yl)isoquinoline]
7 | < 0.01 µmol/L | 1 to 100 µmol/L | COc1ccc(-c2ccc3c[n+]([O-])ccc3c2)c2cc(C(F)(F)F)nn12 [Example 48, 6-(7-Methoxy-2-trifluoromethylpyrazolo[1,5-a]pyridin-4-yl)isoquinoline 2-oxide]
8 | < 0.01 µmol/L | 1 to 100 µmol/L | COc1ccc(-c2ccc3cncc(Cl)c3c2)c2cc(C(F)(F)F)nn12 [Example 49, 4-Chloro-6-(7-methoxy-2-trifluoromethylpyrazolo[1,5-a]pyridin-4-yl)isoquinoline]
9 | < 0.01 µmol/L | 1 to 100 µmol/L | COc1ccc(-c2ccc3cnccc3c2Cl)c2cc(C(F)(F)F)nn12 [Example 50, 5-Chloro-6-(7-methoxy-2-trifluoromethylpyrazolo[1,5-a]pyridin-4-yl)isoquinoline]
10 | < 0.01 µmol/L | ≥ 100 µmol/L | COc1ccc(-c2ccc3cncc(Cl)c3c2)c2c(Cl)c(C(F)(F)F)nn12 [Example 52, 4-Chloro-6-(3-chloro-7-methoxy-2-trifluoromethylpyrazolo[1,5-a]pyridin-4-yl)isoquinoline]
11 | < 0.01 µmol/L | ≥ 100 µmol/L | CNc1ccc(-c2ccc3cnccc3c2)c2c(Cl)c(C(F)(F)F)nn12 [Example 56, 3-Chloro-4-(isoquinolin-6-yl)-N-methyl-2-trifluoromethylpyrazolo[1,5-a]pyridine-7-amine]
12 | < 0.01 µmol/L | ≥ 100 µmol/L | CNc1ccc(-c2ccc3cnccc3c2)n2c(Cl)c(C(F)(F)F)nc12 [Example 58, 3-Chloro-5-(isoquinolin-6-yl)-N-methyl-2-trifluoromethylimidazo[1,2a]pyridine-8-amine]
13 | < 0.01 µmol/L | 1 to 100 µmol/L | COc1ccc(-c2ccc3cnccc3c2)c2cccnc12 [Example 59, 5-(Isoquinolin-6-yl)-8-methoxyquinoline]
